Experimental data reported in patent publication US12410124B2 (priority 2019, dated 2025).
Like-named read-outs stand apart in the source and are kept apart here.

Experiments:
substantia nigra p-α-s = assay: Substantia nigra p-α-s protein expression in MPTP Parkinson's disease model mouse (immunofluorescence); type: in vivo; details: percentage of mean intensity of blank control group, gavage 21 days after MPTP modeling
Procedure: Neurotoxins can be used to establish PD animal models. Currently, 1-methyl-4-phenyl-1,2,3,6-tetrahydropyridine (MPTP) is the sole synthetic toxin which is recognized to induce PD symptoms in human and non-human primates and in mice. Using MPTP subacute modeling method, C57BL/6J male mice were intraperitoneally injected with MPTP 30 mg/kg, once a day for 5 consecutive days. The experiment animals were divided into blank control group, MPTP model group, and compound treatment group. For the […] compound treatment group, the compound was administrated by gavage for 21 consecutive days after the completion of modeling; for the MPTP model group, the normal saline was administrated by gavage for 21 consecutive days after the completion of modeling; and for the blank control group, the normal saline was first intraperitoneally injected for 5 days, and then administrated by gavage for 21 days.
Alpha-synuclein is an “unfolded protein” in its natural state. It exists in a monomeric form, and participates in the physiological functions such as the release of neurotransmitters, the establishment of synaptic junctions, and the regulation of synaptic plasticity. Under pathological conditions, more than 90% of alpha-synuclein is phosphorylated at serine of position 129 and converted into phosphorylated alpha-synuclein (p-α-s), thereby forming Lewy bodies. The formation of Lewy bodies is one of the main pathological manifestations and pathological mechanisms for Parkinson's disease, and plays an important role in the formation and development of PD. The detection of the p-α-s expression in the midbrain and substantia nigra of PD model mice can evaluate the neuroprotective activity of the compound.
Half of experiment mice in each group were taken to separate the midbrain after perfusion and fixation. The tissue was trimmed, and the substantia nigra-striatum area was taken to prepare paraffin sections. The p-α-s immunofluorescence staining was performed in the brain sections of mice in each group. […] The experiment included blank control group, MPTP model group, positive control group (caffeic acid phenethyl ester, CAPE), prototype control group (styryl sulfone compounds 3B, 3C, 3D, and 3G, whose structures are shown as above), and target compound group.

primary glial cells = assay: Inhibition of the NO release of primary glial cells induced by LPS; type: cell-based, rat; details: Rattus norvegicus, Glial cell, read-out: NO inhibition (%)
Description: Lipopolysaccharide (LPS) is a main component of the cell wall of Gram-negative bacteria. It is a potent inflammatory factor that can directly activate gliocytes, and the activated gliocytes secrete a large amount of inflammation mediators such as tumor necrosis factor, interleukin, and nitric oxide, thus causing inflammatory reactions and oxidative stress reactions and eventually leading to neuronal denaturation and death. In recent years, the targeted injection of LPS into rat substantia nigra or striatum to induce neuroinflammation can successfully establish PD models, which can simulate most of the clinical manifestations and pathological features of PD, and are used for the study on the neuroinflammation mechanism associated with PD. LPS-induced primary glial cell PD inflammation model is suitable for the preliminary anti-neuroinflammation screening for neuroprotective agents. LPS is used to directly activate primary glial cells to simulate the pathogenesis mechanism of neuroinflammation, and the inhibitory activity of the target compounds on the inflammatory response of primary glial cells can be investigated.
The materials were taken from the brain tissue of fetal rat, for primary glial cell culture. At 7 to 10 days of the culture, LPS was added for the activation of nitric oxide (NO) release in glial cells. When a target compound was added, the reduction value for NO content in the cell culture medium was measured, to evaluate the anti-neuroinflammation activity of the compound. The experiment included blank control group, LPS model group, positive control group (caffeic acid phenethyl ester, CAPE), prototype control group (styryl sulfone compounds 3B, 3C, 3D, and 3G, the structures of which compounds are shown as above), and target compound group.

[1] = target: acetylcholinesterase (AchE) (Homo sapiens, UniProt P22303); assay: biochemical
Sequence of acetylcholinesterase (AchE) (P22303 32-614, species assumed): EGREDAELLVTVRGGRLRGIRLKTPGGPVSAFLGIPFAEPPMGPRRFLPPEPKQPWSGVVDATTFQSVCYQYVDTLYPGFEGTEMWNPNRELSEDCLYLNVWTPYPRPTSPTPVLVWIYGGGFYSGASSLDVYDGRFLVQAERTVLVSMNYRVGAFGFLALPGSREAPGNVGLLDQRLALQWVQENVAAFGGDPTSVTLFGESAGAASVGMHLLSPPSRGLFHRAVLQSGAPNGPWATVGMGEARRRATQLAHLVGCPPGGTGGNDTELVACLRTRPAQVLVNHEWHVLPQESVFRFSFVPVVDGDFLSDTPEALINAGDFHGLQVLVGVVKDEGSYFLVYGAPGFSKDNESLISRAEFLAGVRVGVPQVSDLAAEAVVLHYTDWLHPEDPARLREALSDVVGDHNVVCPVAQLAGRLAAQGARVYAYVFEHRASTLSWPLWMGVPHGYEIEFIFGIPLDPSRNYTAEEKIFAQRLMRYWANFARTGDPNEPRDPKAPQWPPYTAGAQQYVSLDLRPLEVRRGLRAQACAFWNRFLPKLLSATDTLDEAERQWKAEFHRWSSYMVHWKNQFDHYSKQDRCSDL
Procedure: The modified Ellman method was used to determine the inhibitory activity on acetylcholinesterase. The principle lies in that acetylthiocholine iodide is decomposed under the action of acetylcholinesterase (AchE) to generate thiocholine. The thiocholine is quickly reacted with DTNB as the colour-developing agent to generate a yellow substance with light absorption at 405 nm. To a 96-well microplate, 50 μl of enzyme reaction buffer, 125 μl of DTNB (3 mM), 25 μl of test sample or positive control drug, and 25 μl of AchE (0.2 U/ml) were successively added. After incubation at room temperature for 5 min, 25 μl of ATCI (15 mM) was added. After incubation at room temperature for 8 min, the absorbance value was determined at 405 nm with a microplate reader. A blank control group without enzyme (25 μl PBS instead of the sample to be tested) was also established.

[2] = test system: fetal rat midbrain neurons; assay: Survival rate of primary midbrain neurons induced by MPP+ (CCK-8); type: cell-based; details: Rattus norvegicus, Neuron, read-out: Survival rate (%)
Description: The main pathological feature of Parkinson's disease (PD) lies in the degeneration and loss of dopaminergic neuron in the substantia nigra-striatum of the midbrain. 1-Methyl-4-phenylpyridinium (MPP+) has a high affinity to dopamine carriers and a selective toxicity on dopaminergic neurons. Thus, MPP+ is one of the most ideal classic neurotoxins for establishing PD cell models. The primary cell culture of fetal rat midbrain is often used to establish PD cell models in recent years. Although it is more cumbersome and has higher technical requirements than cell line culture, it is closer to the pathological characteristics of PD. Thus, a PD cell model is established using neurons from the primary cell culture of fetal rat midbrain under MPP+ induction, to evaluate the protective effect of target compounds on the model neurons.
The midbrain was separated from a fetal rat of a 15-day-pregnant SD rat and cut into pieces, then subjected to trypsin digestion, pipetting, screen filtration, and resuspension steps, and inoculated in a 24-well cell culture plate pre-coated with poly-D-lysine. 12 hours after culture, cytarabine was added to inhibit the growth of glial cells. On the 5th day of neuron growth, the toxin MPP+ can be added to make a PD cell model. When detecting the activity of a target compound, the target compound was pre-incubated with midbrain neurons for 3 h, then MPP+ was added, and after 48 h co-incubation the neuronal viability was detected by CCK-8 method and the neuronal survival rate was calculated to evaluate the inhibitory activity of the target compound on the midbrain neuronal PD damage. The experiment included blank control group, MPP+ model group, positive control group (caffeic acid phenethyl ester, CAPE), prototype control group (styryl sulfone compounds 3B, 3C, 3D, and 3G), and target compound group (prepared according to Examples 1-22 in the invention).

[3] = acetylcholinesterase, modified Ellman method, read-out: IC50
[4] = 5 μM, 3 h pre-incubation, 48 h with MPP+
[5] = 10 μM, 3 h pre-incubation, 48 h with MPP+
[6] = 20 μM, 3 h pre-incubation, 48 h with MPP+

Compound | Expression (Immunofluorescence intensity %) (substantia nigra p-α-s) [%] | inhibition at 2 µM (primary glial cells; 2 μM) [%] | inhibition at 5 µM (primary glial cells; 5 μM) [%] | inhibition at 10 µM (primary glial cells; 10 μM) [%] | IC50 [1, 3] [µM] | IC50 ([1]; read-out: IC50 values (acetylcholinesterase)) [µM] | viability at 5 µM [2, 4] [%] | viability at 10 µM [2, 5] [%] | viability at 20 µM [2, 6] [%] | inhibition at 5 µM (primary glial cells) [%] | inhibition at 10 µM (primary glial cells) [%] | inhibition at 20 µM (primary glial cells) [%] | IC50 [1] [µM] | viability at 5 µM ([2]; 48 h) [%] | viability at 10 µM ([2]; 48 h) [%] | viability at 20 µM ([2]; 48 h) [%] | inhibition at 2 µM (primary glial cells) [%] | inhibition at 20 µM (primary glial cells; 20 μM) [%]
O=C(/C=C/c1ccc(O)c(O)c1)OCCc1ccccc1 [Positive control group, caffeic acid phenethyl ester, reference compound] | 202.07 ± 8.34 | 31.5 ± 5.43 | 45.2 ± 3.85 | 77.1 ± 4.37 | > 100 | > 100 | 55 ± 3.78 | 67.1 ± 2.98 | 82.6 ± 2.13 | – | – | – | – | – | – | – | – | –
CC(=O)Oc1ccc(/C=C/S(=O)(=O)Cc2c(F)c(F)c(F)c(F)c2F)cc1OC(=O)NC(=O)c1ccc([N+](=O)[O-])c(C)c1 [Compound D5-4, (E)-2-[N-(3-methyl-4-nitrobenzoyl)carbamoyloxy]-4-{2-[(perfluorophenyl)mesyl]ethenyl}phenyl acetate] | 186.19 ± 11.02 | 24.3 ± 2.82 | – | 80.7 ± 4.06 | 20.8 ± 3.12 | – | 60.5 ± 3.19 | 73.2 ± 4.53 | 87.5 ± 2.16 | – | – | – | – | – | – | – | – | –
CC(C)N(c1ccc(CCS(=O)(=O)/C=C/c2ccc(OC(=O)N(C)c3ccc(I)cc3)c(OCCOCc3ccccc3)c2)cc1)C(C)C [Compound A1-3, (E)-2-(2-benzyloxyethoxy)-4-{2-[4-(N,N-diisopropylamino)phenylethylsulfonyl]ethenyl}phenyl-N-(4-iodophenyl)-N-methylcarbamate] | 134.19 ± 11.28 | – | – | – | – | – | – | – | – | 19.6 ± 3.67 | 43.2 ± 2.36 | 62.1 ± 4.73 | 25.2 ± 3.34 | 74.3 ± 3.75 | 89.7 ± 1.95 | 94.1 ± 1.87 | – | –
Cc1ccc(N2CCN(C(=O)Oc3ccc(/C=C/S(=O)(=O)CCCC(c4ccc(OC(=O)CN(C)C)cc4)N(C)C)cc3OC(=O)N(C)c3ccccc3)CC2)cc1 (stereo not shown) [Compound P1-1, (E)-4-{2-[4-(dimethylamino)-4-(4-(N,N-dimethylglycyloxy)phenyl)butylsulfonyl]ethenyl}-2-(N-methyl-N-phenylcarbamoyloxy)phenyl-4-(p-methylphenyl)piperazine-1-carboxylate] | 182.99 ± 12.70 | – | – | – | – | – | – | – | – | 40 ± 2.66 | 78.4 ± 3.96 | – | 11.3 ± 1.48 | 75.3 ± 3.12 | 86.6 ± 2.39 | 92.2 ± 3.05 | 25.9 ± 3.54 | –
CNC(=O)Oc1ccc(/C=C/S(=O)(=O)CC(Cl)c2ccc(Cl)c([N+](=O)[O-])c2)cc1O (stereo not shown) [Compound E2-2, (E)-4-{2-[2-chloro-2-(4-chloro-3-nitrophenyl)ethylsulfonyl]ethenyl}-2-hydroxyphenyl-N-methylcarbamate] | 128.26 ± 11.62 | – | – | – | – | – | – | – | – | 20.3 ± 4.73 | 36.8 ± 6.11 | 68.9 ± 3.75 | 51.3 ± 3.94 | 58.1 ± 4.27 | 69.3 ± 2.33 | 86.1 ± 2.06 | – | –
O=S(=O)(/C=C/c1ccc(O)c(O)c1)CCCc1ccccc1 [Compound 3C, (E)-4-{2-[(3-phenylpropyl)sulfonyl]ethenyl}benzene-1,2-diol, reference compound] | 132.98 ± 7.78 | – | 9.24 ± 4.88 | 24.6 ± 3.09 | > 100 | – | 61.3 ± 3.22 | 75.7 ± 1.98 | 74.2 ± 4.55 | – | – | – | – | – | – | – | – | 45.8 ± 5.25
O=S(=O)(/C=C/c1ccc(O)c(O)c1)Cc1ccc(Cl)cc1 [Compound 3D, (E)-4-{2-[(4-chlorophenyl)mesyl]ethenyl}benzene-1,2-diol, reference compound] | 104.89 ± 7.56 | 23.5 ± 8.05 | 34.6 ± 4.89 | 74.7 ± 3.32 | > 100 | – | 69.5 ± 5.21 | 84.1 ± 1.87 | 91.5 ± 2.32 | – | – | – | – | – | – | – | – | –
CCOC(CS(=O)(=O)/C=C/c1ccc(OC(C)=O)c(OC(=O)Nc2ccc(NC)cc2)c1)C(OCC)c1ccc(OCc2ccccc2)c(O)c1 (stereo not shown) [Compound H2-4, (E)-4-{2-[3-(4-benzyloxy-3-hydroxyphenyl)-2,3-diethoxypropyl]sulfonylethenyl}-2-[N-(4-methylaminophenyl)carbamoyloxy]phenyl acetate] | 136.53 ± 8.94 | 32.2 ± 4.49 | 50.1 ± 5.37 | 85.4 ± 4.9 | 11.3 ± 1.34 | – | 69 ± 4.31 | 81.5 ± 3.24 | 89.4 ± 1.65 | – | – | – | – | – | – | – | – | –
